# From patent US11781955B2, “Photo-controlled removal of targets in vitro and in vivo” (The United States of America, as represented by the …, priority 2014, dated 2023)
# Read-outs that look alike come from different tables or passages of the source.
# Columns and labels:
# [1] = cited from earlier work
# [2] = variety of solvents, including water; cited from earlier work
# [3] = Solubility of silicon phthalocyanines; assay type: physicochemical; conditions: prior to exposure to NIR light (FIG. 5)
# [4] = IR700 fluorescence after NIR light exposure; assay type: physicochemical; conditions: 0.5 μM in DMF or PBS, laser 2-16 J/cm^2
# Protocol: IR700 (0.5 μM) was suspended in DMF or PBS and exposed to NIR light with a laser (690 nm+/−4) at 2, 4, 8 or 16 J/cm^2. The resulting solution was visualized (in an eppendorf tube) with fluorescence at 700 nm. Some samples were not exposed to NIR light.
# A431-luc-GFP flank tumor = experiment: In vivo PIT on flank tumor; set-up: species or system mouse; conditions: 100 μg, repeated PIT 50 J/cm2 day 1 and 100 J/cm2 day 2
# Protocol: All in vivo procedures were conducted in compliance with the Guide for the Care and Use of Laboratory Animal Resources (1996), US National Research Council, and approved by the local Animal Care and Use Committee. Six- to eight-week-old female homozygote athymic nude mice were purchased from Charles River (NCI-Frederick). During procedures, mice were anesthetized with isoflurane.
# Four million A431-luc-GFP cells were injected subcutaneously in both (right and left symmetrically) flanks of the mice, for the monoculture tumor model. […]
# Controls included (1) only NIR light exposure at 50 J/cm2 on day 1 and 100 J/cm2 on day 2 to the right tumor; (2) no treatment for the left tumor. […] Mice were monitored daily, and serial image analysis was performed.
# In vivo fluorescence images were obtained with a Pearl Imager (LI-COR Bioscience) for detecting IR700 fluorescence, and a Maestro Imager (CRi, Woburn, MA, USA) for GFP/RFP. […] The spectral fluorescence images consist of autofluorescence spectra and the spectra from GFP/RFP (tumor), which were then unmixed, based on the characteristic spectral pattern of GFP, using Maestro software (CRi). Regions of interest (ROIs) were manually drawn either on the flank tumor or over the abdominal region as appropriate to the model and fluorescence intensity was measured. […]
# [5] = assay type: physicochemical
# Protocol: The resulting solution was run on a 4-20% polyacrylamide gel, and stained with Comassie blue and visualized with light or fluorescence at 700 nm. Some samples were not exposed to NIR light. […] Some examples contained NaN3 (sodium azide), a reactive oxygen scavenger, or no oxygen (using an argon gas flash for 20 minutes). The resulting solution was run on a […] gel, and stained with Comassie blue and visualized with light or fluorescence at 700 nm. Some samples were not exposed to NIR light. […] Some examples contained excess oxygen (using 100% oxygen gas flash for 20 minutes). The resulting solution was run on a 4-20% SDS-PAGE gel, and stained with Comassie blue and visualized with light or fluorescence at 700 nm. Some samples were not exposed to NIR light.
# Balb/3T3-RFP cells [6] = experiment: PIT on mixed 2D cell culture, non-target cells; assay type: cell-based; conditions: mixed 2D culture, repeated PIT 2 J/cm2
# Protocol: (§1) Two hundred thousand A431-luc-GFP cells were seeded into 24 well plates or twenty million cells were seeded onto a 10 cm dish and incubated for 24 hr. Medium was replaced with fresh culture medium containing 10 μg/mL of tra-IR700 which was incubated for 6 hr at 37° C. After washing with PBS, phenol red free culture medium was added. Then, cells were irradiated with a NIR laser, which emits light at 670 to 710 nm wavelength (L690-66-60; Marubeni America Co., Santa Clara, CA, USA). The actual power density (mW/cm2) was measured with an optical power meter (PM 100, Thorlabs, Newton, NJ, USA).
# (§2) The cytotoxic effects of PIT with APC were determined by the luciferase activity and flow cytometric PI staining or GFP. For luciferase activity, 150 μg/mL of D-luciferin-containing media (Gold Biotechnology, St Louis, MO, USA) was administered to PBS-washed cells 1 hr after PIT, and analyzed on a bioluminescence imaging (BLI) system (Photon Imager; Biospace Lab, Paris, France). For the flow cytometric assay, cells were trypsinized 1 hr after treatment and washed with PBS. […]
# (§3) Two hundred thousand cells were seeded on cover-glass-bottomed dishes and incubated for 12 hr. […] The GFP/RFP intensity was evaluated with total pixels with the same threshold in the same field of each spheroid20. […] Fluorescence from treated cells was also measured using a flow cytometer (FACS Calibur).
# A431-luc-GFP cells [7] = experiment: In vitro PIT on 2D culture (PI staining, luciferase activity, GFP fluorescence); assay type: cell-based
# Protocol: (§4) To detect the antigen specific localization of IR700 conjugates, fluorescence microscopy was performed (IX61 or IX81; Olympus America, Melville, NY, USA). Ten thousand cells were seeded on cover-glass-bottomed dishes and incubated for 24 hr. APC was then added to the culture medium at 10 μg/mL and incubated at 37° C. for 6 hr. The cells were then washed with PBS; Propidium Iodide (PI)(1:2000)(Life Technologies) and Cytox Blue (1:500)(Life Technologies), were used to detect dead cells. These were added to the media 30 min before observation. The cells were then exposed to NIR light and serial images were obtained. The filter was set to detect IR700 fluorescence with a 590-650 nm excitation filter, and a 665-740 nm band pass emission filter.
# as §1
# The cytotoxic effects of PIT with APC were determined by the luciferase activity and flow cytometric PI staining or GFP. For luciferase activity, 150 μg/mL of D-luciferin-containing media (Gold Biotechnology, St Louis, MO, USA) was administered to PBS-washed cells 1 hr after PIT, and analyzed on a bioluminescence imaging (BLI) system (Photon Imager; Biospace Lab, Paris, France). […]
# as §3
# Balb/3T3-RFP cells [8] = experiment: PIT on 3D spheroids, non-target cells; assay type: cell-based
# Protocol: (§5) Spheroids were generated by the hanging drop method in which five thousand cells were suspended in 50 μL medium and then were dispensed into 96 well plates (3D Biomatrix Inc, Ann Arbor, MI, USA) following manufacturer's instructions (Sato et al., Mol. Oncol. 8, 620-632, 2014). Mixed spheroids were made with 5,000 cells of Balb/3T3-RFP and 500 cells of A431-luc-GFP (100:10)). After observation or treatment, spheroids were again incubated with the hanging drop plates containing new media. The volume of the spheroids was calculated with the formula: spheroid volume=4/3 π×radius^3
# as §4
# [9] = tested on: A431-luc-GFP 3D spheroids; assay type: cell-based
# Protocol: as §5, §4
# 3D reconstructions of the spheroids were obtained with a confocal laser microscope (LSM5 meta, Carl Zeiss, Jena, Germany) after incubation for 30 min with Hoechst 33342 (1:500)(Life Technologies). Sections of spheroids were first fixed with 3.7% formaldehyde in PBS for 10 min at room temperature followed by embedding with OCT (SAKURA, Tokyo, Japan). Then, they were frozen at −80° C., and sliced at 10 μm with a cryotome (LEICA CM3050 S, Leica microsystems, Wetzlar, Germany). Analysis of the images was performed with ImageJ software (http://rsb.info.nih.gov/ij/).
# A431-luc-GFP cells [10] = experiment: In vivo PIT on mixed flank tumor, target cells; set-up: species or system mouse; conditions: repeated PIT
# Protocol: (§6) Four million A431-luc-GFP cells were injected subcutaneously in both (right and left symmetrically) flanks of the mice, for the monoculture tumor model. For the mixed tumor model, mixed cells of 4×10^6 A431-luc-GFP cells and 4×10^5 Balb/3T3-RFP cells (100:10) were injected subcutaneously in the both (right and left symmetrically) flanks.
# (§7) Controls included (1) only NIR light exposure at 50 J/cm2 on day 1 and 100 J/cm2 on day 2 to the right tumor; (2) no treatment for the left tumor. These therapies were performed only once at day 7 after cell implantation. Mice were monitored daily, and serial image analysis was performed.
# (§8) In vivo fluorescence images were obtained with a Pearl Imager (LI-COR Bioscience) for detecting IR700 fluorescence, and a Maestro Imager (CRi, Woburn, MA, USA) for GFP/RFP. […] The spectral fluorescence images consist of autofluorescence spectra and the spectra from GFP/RFP (tumor), which were then unmixed, based on the characteristic spectral pattern of GFP, using Maestro software (CRi). Regions of interest (ROIs) were manually drawn either on the flank tumor or over the abdominal region as appropriate to the model and fluorescence intensity was measured.
# (§9) For BLI, D-luciferin (15 mg/mL, 200 μL) was injected intraperitoneally and the mice were analyzed with a Photon Imager for luciferase activity at day 6. […]
# A431-luc-GFP cells [11] = experiment: Flow cytometry binding to A431-luc-GFP cells with blocking; conditions: 6 hr incubation at 37° C., blocking study
# Protocol: (§10) Fluorescence arising from the cells after incubation with APC agents was measured using a flow cytometer (FACS Calibur, BD BioSciences, San Jose, CA, USA) and CellQuest software (BD BioSciences). Cells (1×10^5) were incubated with each APC for 6 hr at 37° C.
# A431-luc-GFP cells [12] = experiment: PIT on mixed 2D cell culture, target cells; assay type: cell-based; conditions: mixed 2D culture, repeated PIT 2 J/cm2
# Protocol: as §1, §2, §3
# A431-luc-GFP cells [13] = experiment: PIT on mixed 3D spheroid, target cells; assay type: cell-based; conditions: repeated PIT 2 J/cm2
# Protocol: as §5, §4
# Balb/3T3-RFP cells [14] = experiment: In vivo PIT on mixed flank tumor, non-target cells; set-up: species or system mouse; conditions: repeated PIT
# Protocol: as §6, §7, §8, §9
# Balb/3T3-RFP cells [15] = experiment: Flow cytometry binding to Balb/3T3-RFP cells; conditions: non-EGFR expressing cells
# Protocol: as §10
compound,measurement,setting,value
"Oc1cccc(-c2c3nc(c(-c4cccc(O)c4)c4ccc([nH]4)c(-c4cccc(O)c4)c4nc(c(-c5cccc(O)c5)c5ccc2[nH]5)CC4)C=C3)c1 [Foscan®, meta-tetrahydroxyphenylchlorin]",extinction coefficient,[1]; at 652 nm,22000 M⁻¹ cm⁻¹
"C=Cc1c(C)c2cc3nc(c(CC(=O)N[C@@H](CC(=O)[O-])C(=O)[O-])c4[nH]c(cc5nc(cc1[nH]2)C(C)=C5CC)c(C)c4C(=O)[O-])[C@@H](CCC(=O)[O-])[C@@H]3C.[Na+].[Na+].[Na+].[Na+] [NPe6/Laserphyrin®, mono-L-aspartylchlorin e6]",extinction coefficient,[1]; at 654 nm,40000 M⁻¹ cm⁻¹
O[Si]1(O)n2c3c4ccccc4c2N=C2N=C(N=c4c5ccccc5c(n41)=NC1=NC(=N3)c3ccccc31)c1ccccc12 [silicon phthalocyanine dihydroxide],solubility,[2],no measurable solubility
IRDye® 700DX [IR700],extinction coefficient,[1]; at the absorption maximum of 689 nm,210000 M⁻¹ cm⁻¹
same,solubility,[3],can dissolve in different aqueous and organic solvents
same,fluorescence after NIR exposure (photobleaching),[4],still fluorescent even after exposure to strong NIR light
"Pan-IR700: Panitumumab (Vectibix), anti-human EGFR IgG2 MAb, conjugated to IR700; about 3 IR700 per antibody",GFP signal and luciferase activity of tumor,A431-luc-GFP flank tumor,disappearance of both GFP signal and luciferase activity
same,degradation by NIR in excess oxygen,[5],less degradation
same,oxygen dependence of cleavage by NIR,"[5]; 8 or 16 J/cm^2, no treatment, NaN3 or no oxygen (argon)",oxygen independent
same,cleavage of conjugate after NIR light,"[5]; PBS, LED or laser 690 nm, 2-16 J/cm^2",broken down or cleaved after exposure to NIR light
same,effect on non-target cells,Balb/3T3-RFP cells [6],without affecting the non-target cell growth
same,bioluminescence (BLI) and GFP fluorescence intensity after PIT,"A431-luc-GFP cells [7]; 2D culture, 1 hr after PIT",decrease in bioluminescence (BLI) and GFP fluorescence intensity also in a light-dose dependent manner
same,cell killing (dead PI staining),"A431-luc-GFP cells [7]; 2D culture, NIR light dose series",killed in a light-dose dependent manner
same,cell death by microscopy,"A431-luc-GFP cells [7]; 6 hr incubation, NIR 2 J/cm2, 1 hr after PIT",Necrotic cell death was observed
same,effect on non-target cells,"Balb/3T3-RFP cells [8]; mixed 3D spheroid, repeated PIT 2 J/cm2",without damaging non-target cells
same,change of non-target-expressing 3D spheroid with PIT,Balb/3T3-RFP cells [8]; spheroid of non-target cells only,no remarkable change
same,permeation into spheroids (IR700 fluorescence),[9],gradually permeated into spheroids from the perimeter
same,eradication of cells in 3D spheroid,[9]; daily repeated PIT,complete eradication of A431-luc-GFP cells within spheroids
same,cell death in 3D spheroid after PIT,"[9]; single PIT, 2 J/cm2",necrotic cell death in the APC-bound layer of A431-luc-GFP cells
same,spheroid size after PIT,[9]; target 3D spheroid,clearly decreased in size
same,target cell elimination from mixed tumors,A431-luc-GFP cells [10],complete elimination of target-expressing cells from mixed tumors in vivo
same,binding to cells (FACS),A431-luc-GFP cells [11],Specific binding
same,target cell elimination,A431-luc-GFP cells [12],complete target cell elimination
same,target cell elimination,A431-luc-GFP cells [13],complete target cell elimination from the mixed 3D cell culture
same,damage to non-target cells in mixed tumors,Balb/3T3-RFP cells [14],minimal damage to non-target cells
same,binding to cells (FACS),Balb/3T3-RFP cells [15],no binding
Photofrin®,extinction coefficient,[1]; at 630 nm,1200 M⁻¹ cm⁻¹
